Test results from PubChem BioAssay AID1259411 (Chemical Carcinogenesis Research Information System (CCRIS), 2018).
Activity calls are given as the source filed them. How the calls were made is not given here.

Tested on: rodent carcinogenicity bioassays, tumor incidence
Assay: CCRIS carcinogenicity studies
Summary of the method: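 NCI-built, expert-reviewed records of carcinogenicity and related test outcomes (mutagenicity, tumor promotion/inhibition) compiled from published and report sources, historical span 1985-2011, not updated.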

For `C=C(C)C(=O)OC`, the carcinogen call (Species: HAMSTER, Strain/Sex: GOLDEN/FEMALE, Route: INHALATION, Dose: 0, 25, 100, 400 PPM IN AIR 6 HR/D 5 D/WK FOR 18 MO (STUDY DURATION: 78 WK), Dose: 0, 25, 100, 400 PPM IN AIR 6 HR/D 5 D/WK FOR 18 MO (STUDY DURATION: 78 WK)) was “inactive; negative”, the carcinogen call (Species: HAMSTER, Strain/Sex: GOLDEN/MALE, Route: INHALATION, Dose: 0, 25, 100, 400 PPM IN AIR 6 HR/D 5 D/WK FOR 18 MO (STUDY DURATION: 78 WK), Dose: 0, 25, 100, 400 PPM IN AIR 6 HR/D 5 D/WK FOR 18 MO (STUDY DURATION: 78 WK)) was “inactive; negative” and the carcinogen call (Species: MOUSE, Strain/Sex: B6C3F1/FEMALE, Route: INHALATION, Dose: 0, 500, 1000 PPM 6 HR/D, 5 D/WK FOR 102 WK, Dose: 0, 500, 1000 PPM 6 HR/D, 5 D/WK FOR 102 WK) was “inactive; negative”. The carcinogen call (Species: MOUSE, Strain/Sex: B6C3F1/MALE, Route: INHALATION, Dose: 0, 500, 1000 PPM 6 HR/D, 5 D/WK FOR 102 WK, Dose: 0, 500, 1000 PPM 6 HR/D, 5 D/WK FOR 102 WK) was “inactive; negative”, the carcinogen call (Species: RAT, Strain/Sex: F344/FEMALE, Route: INHALATION, Dose: 0, 25, 100, 400 PPM IN AIR 6 HR/D 5 D/WK FOR 24 MO (STUDY DURATION: 104-106 WK), Dose: 0, 25, 100, 400 PPM IN AIR 6 HR/D 5 D/WK FOR 24 MO (STUDY DURATION: 104-106 WK)) was “inactive; negative” and the carcinogen call (Species: RAT, Strain/Sex: F344/FEMALE, Route: INHALATION, Dose: 0, 250, 500 PPM 6 HR/D, 5 D/WK FOR 102 WK, Dose: 0, 250, 500 PPM 6 HR/D, 5 D/WK FOR 102 WK) was “inactive; negative”. The carcinogen call (Species: RAT, Strain/Sex: F344/MALE, Route: INHALATION, Dose: 0, 25, 100, 400 PPM IN AIR 6 HR/D 5 D/WK FOR 24 MO (STUDY DURATION: 104-106 WK), Dose: 0, 25, 100, 400 PPM IN AIR 6 HR/D 5 D/WK FOR 24 MO (STUDY DURATION: 104-106 WK)) was “inactive; negative” and the carcinogen call (Species: RAT, Strain/Sex: F344/MALE, Route: INHALATION, Dose: 0, 500, 1,000 PPM 6 HR/D, 5 D/WK FOR 102 WK, Dose: 0, 500, 1,000 PPM 6 HR/D, 5 D/WK FOR 102 WK) was “inactive; negative”.
In the case of `COc1cc2c(c3oc(=O)c4c(c13)CCC4=O)[C@]1(O)C=CO[C@@H]1O2`, the carcinogen call (Species: FISH, Strain/Sex: RAINBOW TROUT, Route: ORAL, Dose: 0, 1.5, 7.5, UG/KG DIET FOR 5.5 MO (STUDY DURATION: 5.5 MO), Dose: 0, 1.5, 7.5, UG/KG DIET FOR 5.5 MO (STUDY DURATION: 5.5 MO), Tumor Site: Type of Lesion: LIVER: HEPATOMA) is reported as “active; positive”, the carcinogen call (Species: RAT, Strain/Sex: F344/MALE, Route: ORAL, Dose: 0, 0.5, 5, 50 PPB IN AGAR BASED SEMISYNTHETIC DIET FOR STUDY DURATION (STUDY DURATION: 21 MO), Dose: 0, 0.5, 5, 50 PPB IN AGAR BASED SEMISYNTHETIC DIET FOR STUDY DURATION (STUDY DURATION: 21 MO), Tumor Site: Type of Lesion: LIVER: NEOPLASTIC NODULE, HEPATOCELLULAR CARCINOMA) is reported as “active; positive” and the carcinogen call (Species: TROUT, Strain/Sex: MT. SHASTA RAINBOW, Route: ORAL, Dose: 4, 16, 32, 64 PPB IN DIET FOR 12 MO, Dose: 4, 16, 32, 64 PPB IN DIET FOR 12 MO, Tumor Site: Type of Lesion: LIVER: HEPATOMA) is reported as “active; positive”.
With `O=NO` the carcinogen call (Species: MOUSE, Strain/Sex: B6C3F1/FEMALE, Route: ORAL, Dose: 0, 30.7, 310 MG/D IN DRINKING WATER FOR LIFE ADMINISTERED TO MICE OF MOTHERS EXPOSED TO SAME DOSES THROUGH PREGNANCY AND, Dose: 0, 30.7, 310 MG/D IN DRINKING WATER FOR LIFE ADMINISTERED TO MICE OF MOTHERS EXPOSED TO SAME DOSES THROUGH PREGNANCY AND) was “inactive; negative”, the carcinogen call (Species: MOUSE, Strain/Sex: B6C3F1/FEMALE, Route: ORAL, Dose: 0, 750, 1500, 3000 PPM IN DRINKING WATER FOR 104-105 WK (STUDY DURATION: 104-105 WK), Dose: 0, 750, 1500, 3000 PPM IN DRINKING WATER FOR 104-105 WK (STUDY DURATION: 104-105 WK), Tumor Site: Type of Lesion: FORESTOMACH: SQUAMOUS CELL PAPILLOMA OR CARCINOMA) was “equivocal” and the carcinogen call (Species: MOUSE, Strain/Sex: B6C3F1/MALE, Route: ORAL, Dose: 0, 30.7, 310 MG/D IN DRINKING WATER FOR LIFE ADMINISTERED TO MICE OF MOTHERS EXPOSED TO SAME DOSES THROUGH PREGNANCY AND, Dose: 0, 30.7, 310 MG/D IN DRINKING WATER FOR LIFE ADMINISTERED TO MICE OF MOTHERS EXPOSED TO SAME DOSES THROUGH PREGNANCY AND) was “inactive; negative”. For the same compound, the carcinogen call (Species: MOUSE, Strain/Sex: B6C3F1/MALE, Route: ORAL, Dose: 0, 750, 1,500, 3,000 PPM IN DRINKING WATER FOR 104-105 WK (STUDY DURATION: 104-105 WK), Dose: 0, 750, 1,500, 3,000 PPM IN DRINKING WATER FOR 104-105 WK (STUDY DURATION: 104-105 WK)) was “inactive; negative”, the carcinogen call (Species: MOUSE, Strain/Sex: C57BL/FEMALE, Route: ORAL, Dose: 0, 30.7, 310 MG/D IN DRINKING WATER BEGINNING AT 7-8 WK OF AGE AND CONTINUING FOR STUDY DURATION (STUDY DURATION: LIFE S, Dose: 0, 30.7, 310 MG/D IN DRINKING WATER BEGINNING AT 7-8 WK OF AGE AND CONTINUING FOR STUDY DURATION (STUDY DURATION: LIFE S) was “inactive; negative” and the carcinogen call (Species: MOUSE, Strain/Sex: VM/FEMALE, Route: ORAL, Dose: 0, 0.2% IN DRINKING WATER BEGINNING AT WEANING AND CONTINUING FOR DURATION STUDY (STUDY DURATION: LIFETIME)) was “inactive; negative”. For the same compound, the carcinogen call (Species: MOUSE, Strain/Sex: VM/FEMALE, Route: ORAL, Dose: 0, 0.2% IN DRINKING WATER BEGINNING IN UTERO AND CONTINUING FOR DURATION OF STUDY (STUDY DURATION: LIFETIME)) was “inactive; negative”, the carcinogen call (Species: MOUSE, Strain/Sex: VM/MALE, Route: ORAL, Dose: 0, 0.2% IN DRINKING WATER BEGINNING AT WEANING AND CONTINUING FOR DURATION OF STUDY (STUDY DURATION: LIFETIME)) was “inactive; negative” and the carcinogen call (Species: MOUSE, Strain/Sex: VM/MALE, Route: ORAL, Dose: 0, 0.2% IN DRINKING WATER BEGINNING IN UTERO AND CONTINUING FOR DURATION OF STUDY (STUDY DURATION: LIFETIME)) was “inactive; negative”. For the same compound, the carcinogen call (Species: RAT, Strain/Sex: F344/FEMALE, Route: ORAL, Dose: 0, 750, 1,500, 3,000 PPM IN DRINKING WATER FOR 105 WK (STUDY DURATION: 105 WK), Dose: 0, 750, 1,500, 3,000 PPM IN DRINKING WATER FOR 105 WK (STUDY DURATION: 105 WK)) was “inactive; negative”, the carcinogen call (Species: RAT, Strain/Sex: F344/MALE,FEMALE, Route: ORAL, Dose: 0.125, 0.25% IN DRINKING WATER FOR 2 YR) was “inactive; negative” and the carcinogen call (Species: RAT, Strain/Sex: F344/MALE, Route: ORAL, Dose: 0, 0.2, 0.5% IN DIET FOR 115 WK (STUDY DURATION: 115 WK), Dose: 0, 0.2, 0.5% IN DIET FOR 115 WK (STUDY DURATION: 115 WK)) was “inactive; negative”. The carcinogen call (Species: RAT, Strain/Sex: F344/MALE, Route: ORAL, Dose: 0, 750, 1,500, 3,000 PPM IN DRINKING WATER FOR 105 WK (STUDY DURATION: 105 WK), Dose: 0, 750, 1,500, 3,000 PPM IN DRINKING WATER FOR 105 WK (STUDY DURATION: 105 WK)) was “inactive; negative”.
In the case of `CCC1(c2ccccc2)C(=O)N=C(O)NC1=O` (centres undefined), the carcinogen call (Species: MOUSE, Route: ORAL, Tumor Site: Type of Lesion: LIVER) is reported as “active; positive”, the carcinogen call (Species: MOUSE, Strain/Sex: C3H/HE/MALE, Route: ORAL, Dose: 0, 85 MG/KG/D IN DIET FOR DURATION OF STUDY (STUDY DURATION: 91 WK)) is reported as “inactive; negative” and the carcinogen call (Species: MOUSE, Strain/Sex: C57BL/MALE, Route: ORAL, Dose: 0, 85 MG/KG/D IN DIET FOR DURATION OF STUDY (STUDY DURATION: 100 WK)) is reported as “inactive; negative”. For the same compound, the carcinogen call (Species: RAT, Route: ORAL, Tumor Site: Type of Lesion: LIVER) was “active; positive” and the carcinogen call (Species: RAT, Strain/Sex: F344/MALE, Route: ORAL, Dose: 0, 8, 30, 125, 500 PPM IN DIET FOR 104 WK (STUDY DURATION: 104 WK), Dose: 0, 8, 30, 125, 500 PPM IN DIET FOR 104 WK (STUDY DURATION: 104 WK)) was “inactive; negative”.
